Data reported in patent US20200078404A1, “COMBINATION OF A CELL THERAPY AND AN IMMUNOMODULATORY COMPOUND” (Juno Therapeutics, Inc., priority 2017, published 2020).

Key:
[1] = system: anti-BCMA CAR T cells with OPM-2; assay: Cytokine production of anti-BCMA CAR T cells co-cultured with OPM-2 with or without lenalidomide; format: cell-based, human
RPMI-8226 target cells [2] = assay: Cytolytic activity against RPMI-8226 after seven days incubation with BCMA-conjugated beads; format: cell-based, human
Experimental: Cytolytic activity of CAR+ T cells after incubation with BCMA-conjugated beads was assessed by incubation with the BCMA-expressing target cell line RPMI-8226, which is a BCMA+ multiple myeloma cell line. […] The number of viable cells was normalized to cells at day 0 prior to incubation with the RPMI-8226 target cells.

[3] = system: anti-CD19 CAR-expressing T cells; assay: Surface markers after anti-idiotypic antibody stimulation; format: cell-based, human
Excerpt: CAR-expressing T cells were stained for CD3, CD4, CD8 and the surrogate marker for CAR expression, and also for the following markers: CD25, PD-1, and CD69.

RPMI-8226 = conditions: read-out: sensitive to lenalidomide; cited from earlier work
K562-CD19 cells = assay: Cytolytic activity of restimulated anti-CD19 CAR+ T cells against K562-CD19 cells; format: cell-based, human; conditions: 1 μM lenalidomide, 2nd and 4th restimulation
Experimental: Cells from each condition were plated in triplicate. Representative cell killing observed at the 2nd and 4th restimulation for both donors is shown in FIG. 18A (as normalized to K562-CD19-Nuc-labeled cells at t=0) or in FIG. 18B (% cell killing compared to vehicle only control (set at 100%)).

[4] = system: anti-CD19 CAR-expressing T cells; assay: Cytokine production of anti-CD19 CAR-expressing T cells incubated with K562.CD19 target cells; format: cell-based, human; conditions: concentration-dependent, E:T 5:1 and 2.5:1, 24 hours, vs vehicle
anti-CD19 CAR T cells = assay: Proliferation of anti-CD19 CAR T cells under sub-optimal anti-CD3 stimulation (CTV dilution); format: cell-based, human; conditions: 5 μM lenalidomide, sub-optimal anti-CD3, 72 hours
Excerpt: The CAR contained an anti-CD19 scFv, an Ig-derived spacer, a human CD28-derived transmembrane domain, a human 4-1BB-derived intracellular signaling domain and a human CD3 zeta-derived signaling domain. The nucleic acid construct encoding the CAR also included a truncated EGFR (tEGFR) sequence for use as a transduction marker, separated from the CAR sequence by a self-cleaving T2A sequence.

OPM-2 target cells = assay: Cytolytic activity of anti-BCMA CAR T cells co-cultured with OPM-2 target cells with or without lenalidomide; format: cell-based, human
Experimental: […]. The OPM-2 cells were labeled with NucLight Red (NLR) to permit tracking of target cells by microscopy substantially as described above. […] […].
[…]. Cytolytic activity was measured by loss of red fluorescent cells. […].

anti-CD19 CAR+ T cells = assay: IL-10 in supernatants of anti-CD19 CAR+ T cells incubated with K562-CD19 cells; conditions: E:T 3:1 or 9:1, 24 hours
K562.CD19 target cells [5] = assay: Serial stimulation with K562.CD19: cytolytic function at day 24; format: cell-based, human; conditions: day 24 after serial stimulation
Excerpt: (§1) Every 3-4 days (start of each new round), the cells were counted.

anti-BCMA CAR-T cells = assay: Prestimulation of anti-BCMA CAR-T cells on BCMA beads for 7 days: phenotype, cytolytic activity and cytokines with RPMI-8226; format: cell-based, human
Experimental: Expression of CD25, PD-1, Tim3 and Lag3 on CAR T cells (using an antibody for surrogate CAR marker) cultured under the different conditions then was assessed by flow cytometry.
Percentage killing was normalized to anti-BCMA CAR T cells prestimulated on beads in the presence of vehicle. Cytokine production was assessed by ELISA from supernatant following culture with target cells for 24 hours. Experiments were performed twice in 3 donors. […] P values were obtained by likelihood ratio tests comparing the full model with the effect of interest against the model without the effect of interest.

[6] = system: anti-CD19 CAR-expressing T cells; assay: Serial stimulation with K562.CD19: surface markers; format: cell-based, human
Experimental: as §1
Expression of select surface markers was assessed on cells at day 4 (i.e., 4 days after the first stimulation) and day 28 (i.e., 4 days after the seventh stimulation). Specifically, harvested cells were analyzed by flow cytometry for CD3, CD4, CD8 and the surrogate marker for CAR expression, and also for the following surface markers: CD69, CD107a, PD-1, CD25, CD62L, CCR7, CD45RO, CD27, and LAG3.

[7] = system: anti-BCMA CAR T cells with RPMI-8226; assay: Cytokine production of anti-BCMA CAR T cells co-cultured with RPMI-8226 with or without lenalidomide; format: cell-based, human
Excerpt: Culture of T cells not expressing the anti-BCMA CAR (mock) was used as a control.

[8] = system: anti-CD19 CAR-expressing T cells; assay: Cytokine production after anti-idiotypic antibody stimulation; conditions: anti-idiotypic antibody 0.3-30 μg/ml, 24 hours; Compound 1 100, 1000 nM; lenalidomide 500, 5000 nM
RPMI-8226 target cells [9] = assay: Cytolytic activity of anti-BCMA CAR T cells co-cultured with RPMI-8226 target cells with or without lenalidomide; format: cell-based, human
Experimental: […]. […] Cells from each condition were plated in triplicate.

K562.CD19 target cells [10] = assay: Cytolytic function of anti-CD19 CAR-expressing T cells against K562.CD19 target cells; format: cell-based, human
Experimental: K562.CD19 target cells were transduced with NucLight Red to permit their tracking by microscopy. Cytolytic activity was assessed by measuring the loss of viable target cells over a period of five days, as determined by red fluorescent signal (using the IncuCyte® Live Cell Analysis System, Essen Bioscience).

[11] = 1 μM lenalidomide during the prestimulation period
[12] = 1 μM lenalidomide, 7 days on BCMA beads

Compound: Nc1cccc2c1CN(C1CCC(=O)NC1=O)C2=O (stereo not drawn) [lenalidomide, 3-(4-amino-1-oxo-1,3-dihydro-2H-isoindol-2-yl)piperidine-2,6-dione]
- cytokine production and/or accumulation (IFNγ, IL-2, TNF-α) ([1]; 0.01-10 μM lenalidomide, E:T 1:1, 24 hours, four donors): enhance cytokine production and/or accumulation by antigen-stimulated anti-BCMA CAR+ T cells in a dose-dependent manner
- IFN-γ, IL-2 and TNF-α production ([1]; all CAR T donors, concentration-dependent): significantly increased IFN-γ, IL-2, and TNF-α production
- cytokine production (IFNγ, IL-2) ([1]; healthy donor and multiple myeloma patient, E:T 1:1, 24 hours): increased by lenalidomide in a concentration-dependent manner
- target cell viability (RPMI-8226 target cells [2]; RPMI 8226 cells cultured with lenalidomide, no CAR T): did not directly influence target cell viability
- killing activity (RPMI-8226 target cells [2]; lenalidomide present during the cell killing assay): did not substantially affect killing activity
- cytolytic activity of the CAR+ T cells (RPMI-8226 target cells [2]; preincubation with 5 μM lenalidomide during seven day bead incubation): increased cytolytic activity of the CAR+ T cells
- surface markers CD25 and CD69 ([3]; CD4+ and CD8+ CAR-expressing T cells, day 4, some donors): increase in surface markers CD25 and CD69
- expression of PD-1 ([3]; day 4, unchanged or decreased in the other donors): increased in the presence of Compound 1 or lenalidomide in cells generated from at least one donor
- IC50 (RPMI-8226): 6.43 µM
- anti-CD19 CAR+ T cell cytolytic activity (K562-CD19 cells): decrease in anti-CD19 CAR+ T cell cytolytic activity
- cytokine production (IFN-γ, IL-2, TNF-α) [4]: increased
- proliferation of CAR+ T cells (anti-CD19 CAR T cells): enhanced proliferation of the CAR+ T cells
- cytolytic activity of anti-BCMA CAR+ T cells (OPM-2 target cells; 0.01-10 μM lenalidomide, E:T 1:1, 7 days, four donors): enhance cytolytic activity of the anti-BCMA CAR+ T cells against OPM-2 target cells, in a dose-dependent manner
- antigen-specific anti-BCMA CAR-T cytolytic activity (OPM-2 target cells; healthy donor and multiple myeloma patient, E:T 0.3:1, 6 to 7 days): increased by lenalidomide in a concentration-dependent manner
- anti-BCMA CAR T cytolytic activity (OPM-2 target cells; increased concentrations of lenalidomide, all donors): Increased anti-BCMA CAR T cytolytic activity against OPM-2 target cells
- secretion and/or accumulation of IL-10 (anti-CD19 CAR+ T cells): dose-dependently increased secretion and/or accumulation of IL-10
- cytolytic activity of anti-CD19 CAR-expressing T cells (K562.CD19 target cells [5]): increase the cytolytic activity
- cytokine production of prestimulated CAR-T cells (anti-BCMA CAR-T cells; [11]): trend toward increased cytokine production
- cytolytic function of prestimulated CAR-T cells (anti-BCMA CAR-T cells; [11]): preserved cytolytic function
- CD25 expression (MFI) (anti-BCMA CAR-T cells; [12]): increasing CD25 expression
- PD-1 expression (MFI) (anti-BCMA CAR-T cells; [12]): reduced PD-1 expression
- total cell count (anti-BCMA CAR-T cells; 7-day period, all donors): did not alter the total cell count
- CAR+ viability (anti-BCMA CAR-T cells; 7 days on BCMA beads, 3 healthy donors): significantly increased CAR+ viability
- percentage positive for Lag3 expression (anti-BCMA CAR-T cells; CD4+ and CD8+ CAR+ populations, all donors): increased
- percentage of PD-1+ cells (anti-BCMA CAR-T cells; CD4+ population): decrease in the percentage of PD-1+ cells
- surface expression of Tim3 (anti-BCMA CAR-T cells; CD8+ population, three donors): increased the surface expression of Tim3 in the CD8+ population
- expression of CD28 ([6]; CD4+ and CD8+ CAR-expressing T cells, day 28, three donors): decreased in a dose-dependent manner
- PD-1 expression ([6]; both E:T ratios, day 4 and day 28): downregulated to some degree in all donors
- CD25 and LAG3 expression ([6]; day 4): upregulated across all three donors
- CCR7 expression ([6]; day 28): generally decreased at day 28
- CAR-dependent cytokine production and/or accumulation (IL-2, IFNγ, TNF-α) ([7]; 10 μM lenalidomide, E:T 0.3:1, 48 hours): increase in CAR-dependent cytokine production and/or accumulation
- cytokine production by CAR-expressing T cells (IFN-γ, IL-2, TNF-α) ([7]; three healthy donors and one patient donor): significantly increased across all donors and cytokines
- IFN-γ, IL-2 and TNF-α production [8]: increased relative to the vehicle control
- target cell killing by anti-BCMA CAR+ T cells (RPMI-8226 target cells [9]; 1 μM or 10 μM lenalidomide, E:T 0.3:1, day 6, vs absence of lenalidomide): greater degree of target cell killing
- time at which the effect of lenalidomide on cytolytic activity emerges (RPMI-8226 target cells [9]; in culture): > 50 h
- treatment effect of lenalidomide on CAR T cytolytic activity (RPMI-8226 target cells [9]; three healthy donors and one IMiD-refractory patient, 0.01-10 μM): appeared to be donor-dependent
- cytolytic activity of anti-CD19 CAR-expressing cells (K562.CD19 target cells [10]; 2.5:1 E:T ratio, some donors): slightly reduced cytolytic activity
- cytolytic activity of anti-CD19 CAR-expressing T cells (K562.CD19 target cells [10]; 5:1 E:T ratio, high concentrations, Donor 2, no effects with Donors 1 and 3): slight but consistent increase in cytolytic activity
- cytolytic function of anti-CD19 CAR-expressing T cells (K562.CD19 target cells [10]; five days, three donors): limited effect on cytolytic function
